# Measurements taken from article PMC6327999, “Hydroxyl-substituted double Schiff-base condensed 4-piperidone/cyclohexanones as potential anticancer agents with biological evaluation” (Journal of Enzyme Inhibition and Medicinal Chemistry, 2019).
# Like-named read-outs stand apart in the source and are kept apart here.
# Legend:
# [1] = tested on: human lung carcinoma cells (A549); experiment: Cytotoxicity, MTT assay, A549; format: cell-based
# Excerpt: (§1) Compounds 2a–d, 3a–e, 4a–e, 5a–d, and 6a–c were screened against human neoplastic cell lines such as human lung carcinoma cells (A549), human gastric adenocarcinoma cells (SGC7901), human cervical carcinoma cells (HeLa), human liver hepatocellular carcinoma cell line (Hepg2), human chronic myelogenous leukemia cell line (K562), human acute mononuclear granulocyte leukemia (THP-1), human normal heptical cell line (LO2) (Table 1) using modified MTT assay (3-(4,5-dimethyl-2-thiazolyl)-2,5-diphenyl-2-H-tetrazolium bromide, MTT, Dojindo Laboratories, Tokyo, Japan). All cell lines were maintained at 37 °C in a humidified 5% CO2 and 95% air atmosphere. The HePG2 cell lines were cultured in DMEM containing 10% fetal bovine serum. Other cell lines were grown in medium 1640 and supplemented with 10% fetal bovine serum. […] Controls were prepared with 0.1% DMSO (v/v) only. The cells were seeded in a 96-well plate in 200 µL medium per well at a density of 1 × 10^4 cells/well for 24 hours. The cells were treated with serial concentrations of compound and incubated for 24 hours. Cells with only culture media were used as control. After the media was removed, 20 µL of MTT (5 mg/mL) was added then the plates were incubated for 4 hours at 37 °C in cell culture incubator. The MTT containing media were removed and then 150 µL of DMSO was added to dissolve the dark-blue formazan crystals. The optical density (OD) was measured by a multi-well plate reader (TECAN, Männedorf, Switzerland) at 570 nm. The results are expressed as a decrease in the cell viability (%) in comparison to untreated controls. The concentration of each compound was examined in triplicate, and the IC50 values are expressed in Table 1. The concentrations of the compounds were 50, 20, 10, 5, 2.5, 1, 0.5, 0.1, 0.05 and 0.01 µg/mL. Doxorubicin (DOX) and Curcumin were used as positive controls. […] The concentrations of curcumin used were 100, 50, 25, 12.5, 6.25, 3.125, 1, 0.5 and 0.1 µg/mL.
# [2] = tested on: human normal heptical cell line (LO2); experiment: Cytotoxicity, MTT assay, non-malignant LO2; format: cell-based; conditions: 24 hours, non-malignant cells
# Excerpt: as §1
# [3] = tested on: human carcinoma cell lines A549, SGC7901, HePG2, HeLa, K562, THP-1; experiment: Cytotoxicity, MTT assay, panel of human carcinoma cell lines (average / overall); format: cell-based; conditions: for IC50: Homo sapiens
# Excerpt: as §1
# The cytotoxicity activities against human carcinoma cell lines A549, SGC7901, HePG2, HeLa, K562, THP-1 and cytotoxicity toward LO2 cell lines were evaluated by MTT method. DOX and curcumin were used as positive control. The selectivity index (SI) is the quotient of the IC50 values towards nonmalignant LO2 cells. […] Especially for 4a–e, 5a–d, and 6a–c, this ratio can reach about 92%.
# Bax = experiment: Western blot, Bax expression; format: cell-based, human; conditions: HepG2, 3 h, 1.0, 2.0, 4.0 µM, vs negative control
# Protocol: The HepG2 cell lines were treated with different dose of by BAP 5c (1.0, 2.0, 4.0 µM, respectively) for 3 hours, then washed twice with PBS, and lysed in ice-cold modified RIPA buffer containing PMSF (RIPA:PMSF = 100:1; the ultimate density of PMSF is 1.0 mM). The lysates were kept for 30 minutes on the ice, and then centrifuged for 15 min at 12000 rpm/min at 4 °C and the supernatant was collected. The proteins were boiled at 95 °C at 5 min with loading buffer (the volume ratio of protein and the loading buffer is 4:1). Each 50 µg protein of cell lysates were separated by 10% SDS-PAGE gel electrophoresis. The proteins were then transferred onto polyvinylidene fluorides membrane. The membranes were probed with antibodies and visualised using an enhanced chemiluminescence (ECL) detection kit according to the manufacturer instruction.
# HepG2 xenografts = experiment: In vivo antitumor efficacy, HepG2-bearing nude mice; parameters: species or system Balb/c nude mice
# Protocol: (§2) The antitumor effect was investigated on the seven-week-old female Balb/c nude mice (n = 30) weighing 19–21 grams (Shanghai Laboratory Animal Center). Briefly, 0.2 mL HepG2 cells (1 × 10^7/mL) were inoculated subcutaneously into the alar left of each mouse. On the third day after the inoculation, the HepG2-bearing mice were randomly divided into five groups (n = 6/group) and administrated the according drug or solvent. […] The control group was administrated of saline as negative control. The body weight and tumor volumes calculation were recorded from the day of treatment, and the tumor volumes were calculated using the following equation: tumor volume = length × (width)^2 × π/6. Animal experiments were reviewed and approved by the Binzhou Medical University Experimental Animal Committee.
# [4] = Body weight of HepG2-bearing mice; format: in vivo, Balb/c nude mice; conditions: measured every 2 days during treatment
# Protocol: as §2
structure (smiles),measurement,setting,value
O=C1/C(=C/c2cc(/N=C/c3ccc(O)c(O)c3O)ccc2F)CNC/C1=C\c1cc(/N=C/c2ccc(O)c(O)c2O)ccc1F [5c],IC50,"[1]; Homo sapiens, A549, MTT, 24 hours",1400 ± 200 nM
same,A549 SI,[1]; quotient of the IC50 values towards nonmalignant LO2 cells,10.7
same,IC50,[2],15200 ± 600 nM
same,IC50,"[3]; average over the six carcinoma cell lines, read-out: Ave IC50",1200 nM
same,IC50,"[3]; statement for all experimental carcinoma cell lines, read-out: IC50 values against human carcinoma cell lines",< 2000 nM
same,Ave SI,[3]; average over the six carcinoma cell lines,14.1
same,expression level of Bax,Bax,up-regulate the expression level of Bax
same,tumor growth inhibition,HepG2 xenografts; 1.0 mg/kg/d i.p. for 20 days,light inhibitory activity
same,tumor growth inhibition,HepG2 xenografts; 10 mg/kg/d i.p. for 20 days,significantly inhibited the tumor growth
same,body weight change,[4],no apparent change in body weight
